Data taken from patent publication US20190159450A1, “PYRIDINE-BASED COMPOUND INCLUDING ISOXAZOLINE RING AND USE THEREOF AS HERBICIDE” (MOGHU RESEARCH CENTER LTD., priority 2016, published 2019).

Experiments:
Assay type in all cases: in vivo
[1] = test system: maize; assay: Herbicidal activity test, pre-weeds emergence treatment (crop damage); settings: Table 4, 200 g/ha, assessed 2 to 3 weeks after spraying, scale 0-10 (0: no effect, 10: complete death)
Experimental: (§1) A rectangular plastic pot with a surface area of 300 cm^2 was filled with sandy loam soil and mixed soil at a ratio of 1:1, and four kinds of weeds including Quamoclit pennata, Abutilon theophrasti Medicus, and Aeschynomene indica, Xanthium strumarium were sown therein. In another pot made in the same way, three kinds of crop seeds including maize, wheat, and rice were sown. The pots were watered and one day later, a medicament was sprayed thereon. The spraying was performed by using a track sprayer (R&D Sprayer, USA) equipped with Teejet 8002EVS (Spraying Systems Co., USA) nozzle, and the spray amount was controlled to be 1000 L/ha. A spray solution was prepared by dissolving the compound of each example or a control material in acetone, and then, adding the same amount of 0.1% (v/v) tween 20 aqueous solution thereto. The spray amount was 200 g/ha. The pots were placed in a greenhouse in which the temperature was maintained at 25° C. to 30° C. during the day and 15° C. to 25° C. during the night, and was regularly watered. After 2 to 3 weeks from the spraying of the compounds or the control material, the efficacy and the damages on each weed and each crop were assessed according to the scale of 0-10 (0: no effect, 10: complete death) scale and the results are shown in Table 3 below.
(§2) Pots for crops and weeds were prepared in the same manner as the test method illustrated in Table 3, and three kinds of weeds selected from Quamoclit pennata, Abutilon theophrasti Medicus, and Aeschynomene indica, Xanthium strumarium were used.

[2] = test system: rice; assay: as above; settings: Table 4, 200 g/ha, assessed 2 to 3 weeks after spraying, scale 0-10 (0: no effect, 10: complete death)
Experimental: as §1, §2

[3] = test system: wheat; assay: as above; settings: Table 4, 200 g/ha, assessed 2 to 3 weeks after spraying, scale 0-10 (0: no effect, 10: complete death)
Experimental: as §1, §2

[4] = test system: Abutilon theophrasti Medicus; assay: Herbicidal activity test, pre-weeds emergence treatment; settings: Table 4, 200 g/ha, assessed 2 to 3 weeks after spraying, scale 0-10 (0: no effect, 10: complete death)
Experimental: as §1, §2

[5] = test system: Aeschynomene indica; assay: as above; settings: Table 4, 200 g/ha, assessed 2 to 3 weeks after spraying, scale 0-10 (0: no effect, 10: complete death)
Experimental: as §1, §2

[6] = test system: Quamoclit pennata; assay: as above; settings: Table 4, 200 g/ha, assessed 2 to 3 weeks after spraying, scale 0-10 (0: no effect, 10: complete death)
Experimental: as §1, §2

[7] = test system: Xanthium strumarium; assay: as above; settings: Table 4, 200 g/ha, assessed 2 to 3 weeks after spraying, scale 0-10 (0: no effect, 10: complete death)
Experimental: as §1, §2

[8] = test system: maize; assay: Herbicidal activity test, post-weeds emergence treatment (crop damage); settings: spray amount 200 g/ha for crops, assessed after 2 to 3 weeks, 0: no effect, 10: complete death, Table 6
Experimental: as §1
(§3) Pots for crops and weeds were prepared in the same manner as in Experimental Example 1, and then, when the crops and the weeds were raised up to 2 weeks roughly on a third-leaf stage, the compounds and the control material were sprayed thereon in the same manner as described above. The spray amount was 200 g/ha. After 2 to 3 weeks from the spraying of the test substance or the control substance, the efficacy and the damages on each weed and each crop were assessed according to the scale of 0-10 (0: no effect, 10: complete death) scale.
as §2, with “5,” for “3,”, “four” for “three”, “used. The spray amount was 200 g/ha for crops and 50 g/ha for weeds.” for “used.”

[9] = test system: rice; assay: as above; settings: spray amount 200 g/ha for crops, assessed after 2 to 3 weeks, 0: no effect, 10: complete death, Table 6
Experimental: as §1, §3
as §2, with “5,” for “3,”, “four” for “three”, “used. The spray amount was 200 g/ha for crops and 50 g/ha for weeds.” for “used.”

[10] = test system: wheat; assay: as above; settings: spray amount 200 g/ha for crops, assessed after 2 to 3 weeks, 0: no effect, 10: complete death, Table 6
Experimental: as §1, §3
as §2, with “5,” for “3,”, “four” for “three”, “used. The spray amount was 200 g/ha for crops and 50 g/ha for weeds.” for “used.”

[11] = test system: Abutilon theophrasti Medicus; assay: Herbicidal activity test, post-weeds emergence treatment; settings: spray amount 50 g/ha for weeds, assessed after 2 to 3 weeks, 0: no effect, 10: complete death, Table 6
Experimental: as §1, §3
as §2, with “5,” for “3,”, “four” for “three”, “used. The spray amount was 200 g/ha for crops and 50 g/ha for weeds.” for “used.”

[12] = test system: Aeschynomene indica; assay: as above; settings: spray amount 50 g/ha for weeds, assessed after 2 to 3 weeks, 0: no effect, 10: complete death, Table 6
Experimental: as §1, §3
as §2, with “5,” for “3,”, “four” for “three”, “used. The spray amount was 200 g/ha for crops and 50 g/ha for weeds.” for “used.”

[13] = test system: Quamoclit pennata; assay: as above; settings: spray amount 50 g/ha for weeds, assessed after 2 to 3 weeks, 0: no effect, 10: complete death, Table 6
Experimental: as §1, §3
as §2, with “5,” for “3,”, “four” for “three”, “used. The spray amount was 200 g/ha for crops and 50 g/ha for weeds.” for “used.”

[14] = test system: Xanthium strumarium; assay: as above; settings: spray amount 50 g/ha for weeds, assessed after 2 to 3 weeks, 0: no effect, 10: complete death, Table 6
Experimental: as §1, §3
as §2, with “5,” for “3,”, “four” for “three”, “used. The spray amount was 200 g/ha for crops and 50 g/ha for weeds.” for “used.”

| SMILES | PRE ZEAMX (maize), damage score [1] | PRE ORYSA (rice), damage score [2] | PRE TRZAW (wheat), damage score [3] | PRE ABUTH (Abutilon theophrasti Medicus), efficacy score [4] | PRE AESIN (Aeschynomene indica), efficacy score [5] | PRE IPOAN (Quamoclit pennata), efficacy score [6] | PRE XANST (Xanthium strumarium), efficacy score [7] | ZEAMX (maize) damage, scale of 0-10 [8] | ORYSA (rice) damage, scale of 0-10 [9] | TRZAW (wheat) damage, scale of 0-10 [10] | ABUTH (Abutilon theophrasti Medicus) herbicidal efficacy, scale of 0-10 [11] | AESIN (Aeschynomene indica) herbicidal efficacy, scale of 0-10 [12] | IPOAN (Quamoclit pennata) herbicidal efficacy, scale of 0-10 [13] | XANST (Xanthium strumarium) herbicidal efficacy, scale of 0-10 [14] |
| --- | --- | --- | --- | --- | --- | --- | --- | --- | --- | --- | --- | --- | --- | --- |
| COC(=O)c1nc(C2(C)CC(Br)=NO2)cc(N)c1Cl (stereo not drawn) [Compound 53, methyl 4-amino-3-chloro-6-(3-bromo-5-methyl-4,5-dihydroisoxazol-5-yl)picolinate] | 0 | 0 | 0 | 10 | 10 | 6 | 9 | 0 | 0 | 1 | 6 | 9 | 4 | 9 |
| CC1(c2cc(N)c(Cl)c(C(=O)O)n2)CC(Br)=NO1 (stereo not drawn) [Compound 54, 4-amino-3-chloro-6-(3-bromo-5-methyl-4,5-dihydroisoxazol-5-yl)picolinic acid] | 0 | 0 | 0 | 10 | 10 | 5 | 8 | 0 | 0 | 0 | 4 | 6 | 5 | 8 |
| CCOC(=O)c1nc(C2CC(Br)=NO2)cc(N)c1Cl (stereo not drawn) [Compound 73, ethyl 4-amino-6-(3-bromo-4,5-dihydroisoxazol-5-yl)-3-chloropicolinate] | 0 | 0 | 0 | 10 | 10 | 6 | 9 | 0 | 0 | 1 | 6 | 9 | 4 | 9 |
| CC(C)OC(=O)c1nc(C2CC(Br)=NO2)cc(N)c1Cl (stereo not drawn) [Compound 83, isopropyl 4-amino-6-(3-bromo-4,5-dihydroisoxazol-5-yl)-3-chloropicolinate] | 0 | 0 | 0 | 0 | 5 | 5 | 2 | 0 | 0 | 0 | 4 | 5 | 5 | 7 |
| CC(C)COC(=O)c1nc(C2CC(Br)=NO2)cc(N)c1Cl (stereo not drawn) [Compound 84, isobutyl 4-amino-6-(3-bromo-4,5-dihydroisoxazol-5-yl)-3-chloropicolinate] | 0 | 1 | 0 | 4 | 10 | 5 | 10 | 0 | 0 | 0 | 6 | 9 | 6 | 10 |
| Nc1cc(C2CC(Br)=NO2)nc(C(=O)Oc2ccccc2)c1Cl (stereo not drawn) [Compound 85, phenyl 4-amino-3-chloro-6-(3-bromo-4,5-dihydroisoxazol-5-yl)picolinate] | 0 | 0 | 0 | 8 | 10 | 6 | 10 | 0 | 0 | 0 | 5 | 9 | 5 | 10 |
| Nc1cc(C2CC(Br)=NO2)nc(C(=O)OCc2ccccc2)c1Cl (stereo not drawn) [Compound 86, benzyl 4-amino-3-chloro-6-(3-bromo-4,5-dihydroisoxazol-5-yl)picolinate] | 0 | 0 | 0 | 3 | 6 | 3 | 2 | 0 | 3 | 0 | 4 | 2 | 5 | 8 |
| Cc1ccc(COC(=O)c2nc(C3CC(Br)=NO3)cc(N)c2Cl)cc1 (stereo not drawn) [Compound 87, 4-methylbenzyl 4-amino-6-(3-bromo-4,5-dihydroisoxazol-5-yl)-3-chloropicolinate] | 0 | 0 | 0 | 6 | 9 | 7 | 5 | 1 | 0 | 0 | 6 | 9 | 4 | 10 |
| Nc1cc(C2CC(Br)=NO2)nc(C(=O)OCc2ccc(C(F)(F)F)cc2)c1Cl (stereo not drawn) [Compound 88, 4-trifluoromethylbenzyl 4-amino-6-(3-bromo-4,5-dihydroisoxazol-5-yl)-3-chloropicolinate] | 0 | 0 | 0 | 5 | 10 | 3 | 9 | 0 | 0 | 0 | 5 | 8 | 6 | 10 |
